Data as given in the supplement of paper PMC10307832.

Key:
Experiment in all cases: relative viability (nuclei count vs DMSO), 5 days (fraction); higher = more cells survive
Linifanib + Palbociclib = compound: Cc1ccc(F)c(NC(=O)Nc2ccc(-c3cccc4[nH]nc(N)c34)cc2)c1 [Linifanib] + CC(=O)c1c(C)c2cnc(Nc3ccc(N4CCNCC4)cn3)nc2n(C2CCCC2)c1=O [Palbociclib] (partner 0.5 µM)
Summary of the method: (§1)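 Lung cancer cell lines were pin-tool dosed in 1536-well plates on the day after seeding, with either a lone drug or a fixed anchor-drug dose plus five library-drug doses (not always all listed) in √10 steps. Nuclei were counted on 4× images after 5 days. Relative viability is the ratio of treated-well to vehicle-well nuclei counts, with each value a median of duplicate plates.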

Linifanib + Crizotinib = compound: Cc1ccc(F)c(NC(=O)Nc2ccc(-c3cccc4[nH]nc(N)c34)cc2)c1 [Linifanib] + C[C@@H](Oc1cc(-c2cnn(C3CCNCC3)c2)cnc1N)c1c(Cl)ccc(F)c1Cl [Crizotinib] (partner 1 µM)
Summary of the method: as §1

Linifanib + Tozasertib = compound: Cc1ccc(F)c(NC(=O)Nc2ccc(-c3cccc4[nH]nc(N)c34)cc2)c1 [Linifanib] + Cc1cc(Nc2cc(N3CCN(C)CC3)nc(Sc3ccc(NC(=O)C4CC4)cc3)n2)n[nH]1 [Tozasertib] (partner 0.1 µM)
Summary of the method: as §1

Linifanib + Trametinib = compound: Cc1ccc(F)c(NC(=O)Nc2ccc(-c3cccc4[nH]nc(N)c34)cc2)c1 [Linifanib] + CC(=O)Nc1cccc(-n2c(=O)n(C3CC3)c(=O)c3c(Nc4ccc(I)cc4F)n(C)c(=O)c(C)c32)c1 [Trametinib] (partner 0.02 µM)
Summary of the method: as §1

Linifanib + Foretinib = compound: Cc1ccc(F)c(NC(=O)Nc2ccc(-c3cccc4[nH]nc(N)c34)cc2)c1 [Linifanib] + COc1cc2c(Oc3ccc(NC(=O)C4(C(=O)Nc5ccc(F)cc5)CC4)cc3F)ccnc2cc1OCCCN1CCOCC1 [Foretinib] (partner 0.25 µM)
Summary of the method: as §1

Linifanib = compound: Cc1ccc(F)c(NC(=O)Nc2ccc(-c3cccc4[nH]nc(N)c34)cc2)c1 [Linifanib]
Summary of the method: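 In 1536-well plates, lung cancer cell lines rested overnight at 37 °C before five library-drug doses (not always all listed), √10 apart, were pinned onto vehicle-anchored plates. Nuclei were counted with MetaXpress from 4× Hoechst images taken after 5 days without medium change. Viability compares treated-well with vehicle-well nuclei as a median over plates, and plates needed control CV below 25% plus at least one doubling to pass.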

NCI-H1915
relative viability (Linifanib + Palbociclib; first compound 0.03162 µM): 0.541 | relative viability (Linifanib + Palbociclib; first compound 0.1 µM): 0.548 | relative viability (Linifanib + Palbociclib; first compound 0.3162 µM): 0.507 | relative viability (Linifanib + Crizotinib; first compound 0.03162 µM): 0.9 | relative viability (Linifanib + Crizotinib; first compound 0.1 µM): 0.923 | relative viability (Linifanib + Crizotinib; first compound 0.3162 µM): 0.838 | relative viability (Linifanib + Tozasertib; first compound 0.03162 µM): 0.436 | relative viability (Linifanib + Tozasertib; first compound 0.1 µM): 0.469 | relative viability (Linifanib + Tozasertib; first compound 0.3162 µM): 0.399 | relative viability (Linifanib + Trametinib; first compound 0.03162 µM): 0.279 | relative viability (Linifanib + Trametinib; first compound 0.1 µM): 0.339 | relative viability (Linifanib + Trametinib; first compound 0.3162 µM): 0.297 | relative viability (Linifanib + Foretinib; first compound 0.03162 µM): 1.08 | relative viability (Linifanib + Foretinib; first compound 0.1 µM): 1.15 | relative viability (Linifanib + Foretinib; first compound 0.3162 µM): 1.04 | relative viability (Linifanib; 0.03162 µM): 1.03 | relative viability (Linifanib; 0.1 µM): 1.02 | relative viability (Linifanib; 0.3162 µM): 0.934

NCI-H441
relative viability (Linifanib + Palbociclib; first compound 0.03162 µM): 0.222 | relative viability (Linifanib + Palbociclib; first compound 0.1 µM): 0.24 | relative viability (Linifanib + Palbociclib; first compound 0.3162 µM): 0.228 | relative viability (Linifanib + Crizotinib; first compound 0.03162 µM): 0.715 | relative viability (Linifanib + Crizotinib; first compound 0.1 µM): 0.855 | relative viability (Linifanib + Crizotinib; first compound 0.3162 µM): 0.713 | relative viability (Linifanib + Tozasertib; first compound 0.03162 µM): 0.48 | relative viability (Linifanib + Tozasertib; first compound 0.1 µM): 0.654 | relative viability (Linifanib + Tozasertib; first compound 0.3162 µM): 0.678 | relative viability (Linifanib + Trametinib; first compound 0.03162 µM): 0.457 | relative viability (Linifanib + Trametinib; first compound 0.1 µM): 0.518 | relative viability (Linifanib + Trametinib; first compound 0.3162 µM): 0.409 | relative viability (Linifanib + Foretinib; first compound 0.03162 µM): 1.08 | relative viability (Linifanib + Foretinib; first compound 0.1 µM): 0.945 | relative viability (Linifanib + Foretinib; first compound 0.3162 µM): 1.27 | relative viability (Linifanib; 0.03162 µM): 1.1 | relative viability (Linifanib; 0.1 µM): 1.27 | relative viability (Linifanib; 0.3162 µM): 0.974

NCI-H1437
relative viability (Linifanib + Palbociclib; first compound 0.03162 µM): 0.344 | relative viability (Linifanib + Palbociclib; first compound 0.1 µM): 0.331 | relative viability (Linifanib + Palbociclib; first compound 0.3162 µM): 0.311 | relative viability (Linifanib + Crizotinib; first compound 0.03162 µM): 1.05 | relative viability (Linifanib + Crizotinib; first compound 0.1 µM): 0.849 | relative viability (Linifanib + Crizotinib; first compound 0.3162 µM): 0.888 | relative viability (Linifanib + Tozasertib; first compound 0.03162 µM): 0.375 | relative viability (Linifanib + Tozasertib; first compound 0.1 µM): 0.444 | relative viability (Linifanib + Tozasertib; first compound 0.3162 µM): 0.389 | relative viability (Linifanib + Trametinib; first compound 0.03162 µM): 0.559 | relative viability (Linifanib + Trametinib; first compound 0.1 µM): 0.618 | relative viability (Linifanib + Trametinib; first compound 0.3162 µM): 0.45 | relative viability (Linifanib + Foretinib; first compound 0.03162 µM): 1.27 | relative viability (Linifanib + Foretinib; first compound 0.1 µM): 1.25 | relative viability (Linifanib + Foretinib; first compound 0.3162 µM): 1.19 | relative viability (Linifanib; 0.03162 µM): 1.07 | relative viability (Linifanib; 0.1 µM): 1.01 | relative viability (Linifanib; 0.3162 µM): 0.978

LC-2-ad
relative viability (Linifanib + Palbociclib; first compound 0.03162 µM): 0.499 | relative viability (Linifanib + Palbociclib; first compound 0.1 µM): 0.471 | relative viability (Linifanib + Palbociclib; first compound 0.3162 µM): 0.421 | relative viability (Linifanib + Crizotinib; first compound 0.03162 µM): 0.588 | relative viability (Linifanib + Crizotinib; first compound 0.1 µM): 0.404 | relative viability (Linifanib + Crizotinib; first compound 0.3162 µM): 0.381 | relative viability (Linifanib + Tozasertib; first compound 0.03162 µM): 0.416 | relative viability (Linifanib + Tozasertib; first compound 0.1 µM): 0.445 | relative viability (Linifanib + Tozasertib; first compound 0.3162 µM): 0.472 | relative viability (Linifanib + Trametinib; first compound 0.03162 µM): 0.87 | relative viability (Linifanib + Trametinib; first compound 0.1 µM): 0.924 | relative viability (Linifanib + Trametinib; first compound 0.3162 µM): 0.824 | relative viability (Linifanib + Foretinib; first compound 0.03162 µM): 0.905 | relative viability (Linifanib + Foretinib; first compound 0.1 µM): 0.911 | relative viability (Linifanib + Foretinib; first compound 0.3162 µM): 0.904 | relative viability (Linifanib; 0.03162 µM): 0.996 | relative viability (Linifanib; 0.1 µM): 0.996 | relative viability (Linifanib; 0.3162 µM): 0.88

UMC-11
relative viability (Linifanib + Palbociclib; first compound 0.03162 µM): 0.342 | relative viability (Linifanib + Palbociclib; first compound 0.1 µM): 0.309 | relative viability (Linifanib + Palbociclib; first compound 0.3162 µM): 0.335 | relative viability (Linifanib + Crizotinib; first compound 0.03162 µM): 0.657 | relative viability (Linifanib + Crizotinib; first compound 0.1 µM): 0.604 | relative viability (Linifanib + Crizotinib; first compound 0.3162 µM): 0.598 | relative viability (Linifanib + Tozasertib; first compound 0.03162 µM): 0.214 | relative viability (Linifanib + Tozasertib; first compound 0.1 µM): 0.201 | relative viability (Linifanib + Tozasertib; first compound 0.3162 µM): 0.222 | relative viability (Linifanib + Trametinib; first compound 0.03162 µM): 0.807 | relative viability (Linifanib + Trametinib; first compound 0.1 µM): 0.721 | relative viability (Linifanib + Trametinib; first compound 0.3162 µM): 0.774 | relative viability (Linifanib + Foretinib; first compound 0.03162 µM): 0.986 | relative viability (Linifanib + Foretinib; first compound 0.1 µM): 1.16 | relative viability (Linifanib + Foretinib; first compound 0.3162 µM): 1.04 | relative viability (Linifanib; 0.03162 µM): 0.979 | relative viability (Linifanib; 0.1 µM): 1.02 | relative viability (Linifanib; 0.3162 µM): 0.878

NCI-H1650
relative viability (Linifanib + Palbociclib; first compound 0.03162 µM): 0.35 | relative viability (Linifanib + Palbociclib; first compound 0.1 µM): 0.399 | relative viability (Linifanib + Palbociclib; first compound 0.3162 µM): 0.351 | relative viability (Linifanib + Crizotinib; first compound 0.03162 µM): 0.955 | relative viability (Linifanib + Crizotinib; first compound 0.1 µM): 1.17 | relative viability (Linifanib + Crizotinib; first compound 0.3162 µM): 0.864 | relative viability (Linifanib + Tozasertib; first compound 0.03162 µM): 0.389 | relative viability (Linifanib + Tozasertib; first compound 0.1 µM): 0.475 | relative viability (Linifanib + Tozasertib; first compound 0.3162 µM): 0.377 | relative viability (Linifanib + Trametinib; first compound 0.03162 µM): 0.563 | relative viability (Linifanib + Trametinib; first compound 0.1 µM): 0.673 | relative viability (Linifanib + Trametinib; first compound 0.3162 µM): 0.541 | relative viability (Linifanib + Foretinib; first compound 0.03162 µM): 0.966 | relative viability (Linifanib + Foretinib; first compound 0.1 µM): 1.33 | relative viability (Linifanib + Foretinib; first compound 0.3162 µM): 1.07 | relative viability (Linifanib; 0.03162 µM): 0.965 | relative viability (Linifanib; 0.1 µM): 0.966 | relative viability (Linifanib; 0.3162 µM): 0.89

NCI-H1666
relative viability (Linifanib + Palbociclib; first compound 0.03162 µM): 0.649 | relative viability (Linifanib + Palbociclib; first compound 0.1 µM): 0.647 | relative viability (Linifanib + Palbociclib; first compound 0.3162 µM): 0.693 | relative viability (Linifanib + Crizotinib; first compound 0.03162 µM): 0.971 | relative viability (Linifanib + Crizotinib; first compound 0.1 µM): 0.989 | relative viability (Linifanib + Crizotinib; first compound 0.3162 µM): 0.966 | relative viability (Linifanib + Tozasertib; first compound 0.03162 µM): 0.626 | relative viability (Linifanib + Tozasertib; first compound 0.1 µM): 0.666 | relative viability (Linifanib + Tozasertib; first compound 0.3162 µM): 0.658 | relative viability (Linifanib + Trametinib; first compound 0.03162 µM): 0.851 | relative viability (Linifanib + Trametinib; first compound 0.1 µM): 0.878 | relative viability (Linifanib + Trametinib; first compound 0.3162 µM): 0.842 | relative viability (Linifanib + Foretinib; first compound 0.03162 µM): 0.923 | relative viability (Linifanib + Foretinib; first compound 0.1 µM): 0.969 | relative viability (Linifanib + Foretinib; first compound 0.3162 µM): 0.998 | relative viability (Linifanib; 0.03162 µM): 0.986 | relative viability (Linifanib; 0.1 µM): 1.03 | relative viability (Linifanib; 0.3162 µM): 0.939

NCI-H1993
relative viability (Linifanib + Palbociclib; first compound 0.03162 µM): 0.688 | relative viability (Linifanib + Palbociclib; first compound 0.1 µM): 0.826 | relative viability (Linifanib + Palbociclib; first compound 0.3162 µM): 0.725 | relative viability (Linifanib + Crizotinib; first compound 0.03162 µM): 1.01 | relative viability (Linifanib + Crizotinib; first compound 0.1 µM): 0.932 | relative viability (Linifanib + Crizotinib; first compound 0.3162 µM): 0.867 | relative viability (Linifanib + Tozasertib; first compound 0.03162 µM): 0.62 | relative viability (Linifanib + Tozasertib; first compound 0.1 µM): 0.638 | relative viability (Linifanib + Tozasertib; first compound 0.3162 µM): 0.57 | relative viability (Linifanib + Trametinib; first compound 0.03162 µM): 0.623 | relative viability (Linifanib + Trametinib; first compound 0.1 µM): 0.593 | relative viability (Linifanib + Trametinib; first compound 0.3162 µM): 0.61 | relative viability (Linifanib + Foretinib; first compound 0.03162 µM): 0.807 | relative viability (Linifanib + Foretinib; first compound 0.1 µM): 0.88 | relative viability (Linifanib + Foretinib; first compound 0.3162 µM): 0.758 | relative viability (Linifanib; 0.03162 µM): 0.89 | relative viability (Linifanib; 0.1 µM): 1.2 | relative viability (Linifanib; 0.3162 µM): 0.946
